From ChEMBL document CHEMBL1201862, “PubChem BioAssay data set” (2004)
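These data come from cells grown in 96-well plates and exposed to compound for 48 hours at five concentrations. GI50 is the concentration that inhibits growth by half.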 The source made the active and inactive calls. Rule as the data show it: active = GI50 up to about 1.1 µM and inactive = higher.

What was measured:
Assay in all cases: NCI anticancer screen, dose series, 48 h
NCI-H226 = tested on: NCI-H226
Malme-3M = tested on: Malme-3M
SK-MEL-28 = tested on: SK-MEL-28
HT-29 = tested on: HT-29
SF-268 = tested on: SF-268
MDA-MB-231 = tested on: MDA-MB-231
KM12 = tested on: KM12
SW-620 = tested on: SW-620
OVCAR-4 = tested on: OVCAR-4
NCI/ADR-RES = tested on: NCI/ADR-RES
SNB-75 = tested on: SNB-75
M14 = tested on: M14
SF-295 = tested on: SF-295
MDA-MB-435 = tested on: MDA-MB-435
RPMI-8226 = tested on: RPMI-8226
RXF 393 = tested on: RXF 393
SK-OV-3 = tested on: SK-OV-3
SNB-19 = tested on: SNB-19
786-0 = tested on: 786-0
SN12C = tested on: SN12C
MOLT-4 = tested on: MOLT-4
HCT-116 = tested on: HCT-116
CAKI-1 = tested on: CAKI-1
SF-539 = tested on: SF-539
OVCAR-8 = tested on: OVCAR-8
SK-MEL-5 = tested on: SK-MEL-5
T47D = tested on: T47D
HOP-62 = tested on: HOP-62
COLO 205 = tested on: COLO 205
NCI-H23 = tested on: NCI-H23
K562 = tested on: K562
A549 = tested on: A549
UO-31 = tested on: UO-31
OVCAR-5 = tested on: OVCAR-5
HCT-15 = tested on: HCT-15
UACC-257 = tested on: UACC-257
U-251 = tested on: U-251
DU-145 = tested on: DU-145
PC-3 = tested on: PC-3
UACC-62 = tested on: UACC-62
CCRF-CEM = tested on: CCRF-CEM
HCC 2998 = tested on: HCC 2998
NCI-H522 = tested on: NCI-H522
A498 = tested on: A498
BT-549 = tested on: BT-549
EKVX = tested on: EKVX
MCF7 = tested on: MCF7
LOX IMVI = tested on: LOX IMVI
SK-MEL-2 = tested on: SK-MEL-2
IGROV-1 = tested on: IGROV-1
NCI-H460 = tested on: NCI-H460
SR = tested on: SR
TK-10 = tested on: TK-10
ACHN = tested on: ACHN
HOP-92 = tested on: HOP-92
HL-60 = tested on: HL-60
OVCAR-3 = tested on: OVCAR-3
MDA-N = tested on: MDA-N

COC(=O)CCC1=C(CC(=O)OC)C(C)(OC)N/C1=N/C(=O)OCc1ccccc1 (centres undefined)
GI50 (NCI-H226): > 100 µM (inactive) | GI50 (Malme-3M): > 100 µM (inactive) | GI50 (SK-MEL-28): > 100 µM (inactive) | GI50 (HT-29): > 100 µM (inactive) | GI50 (SF-268): > 100 µM (inactive) | GI50 (MDA-MB-231): > 100 µM (inactive) | GI50 (KM12): > 100 µM (inactive) | GI50 (SW-620): > 100 µM (inactive) | GI50 (OVCAR-4): > 100 µM (inactive) | GI50 (NCI/ADR-RES): > 100 µM (inactive) | GI50 (SNB-75): > 100 µM (inactive) | GI50 (M14): > 100 µM (inactive) | GI50 (SF-295): > 100 µM (inactive) | GI50 (MDA-MB-435): > 100 µM (inactive) | GI50 (RPMI-8226): > 100 µM (inactive) | GI50 (RXF 393): > 100 µM (inactive) | GI50 (SK-OV-3): > 100 µM (inactive) | GI50 (SNB-19): > 100 µM (inactive) | GI50 (786-0): > 100 µM (inactive) | GI50 (SN12C): > 100 µM (inactive) | GI50 (MOLT-4): > 100 µM (inactive) | GI50 (HCT-116): > 100 µM (inactive) | GI50 (CAKI-1): > 100 µM (inactive) | GI50 (SF-539): > 100 µM (inactive) | GI50 (OVCAR-8): > 100 µM (inactive) | GI50 (SK-MEL-5): > 100 µM (inactive) | GI50 (T47D): > 100 µM (inactive) | GI50 (HOP-62): > 100 µM (inactive) | GI50 (COLO 205): > 100 µM (inactive) | GI50 (NCI-H23): > 100 µM (inactive) | GI50 (K562): > 100 µM (inactive) | GI50 (A549): > 100 µM (inactive) | GI50 (UO-31): > 100 µM (inactive) | GI50 (OVCAR-5): > 100 µM (inactive) | GI50 (HCT-15): > 100 µM | GI50 (UACC-257): > 100 µM (inactive) | GI50 (U-251): > 100 µM (inactive) | GI50 (DU-145): > 100 µM (inactive) | GI50 (PC-3): > 100 µM (inactive) | GI50 (UACC-62): > 100 µM (inactive) | GI50 (CCRF-CEM): > 100 µM (inactive) | GI50 (HCC 2998): > 100 µM (inactive) | GI50 (NCI-H522): > 100 µM (inactive) | GI50 (A498): > 100 µM (inactive) | GI50 (BT-549): > 100 µM (inactive) | GI50 (EKVX): > 100 µM (inactive) | GI50 (MCF7): > 100 µM (inactive) | GI50 (LOX IMVI): > 100 µM (inactive) | GI50 (SK-MEL-2): > 100 µM (inactive) | GI50 (IGROV-1): > 100 µM (inactive) | GI50 (NCI-H460): > 100 µM (inactive) | GI50 (SR): > 100 µM (inactive) | GI50 (TK-10): > 100 µM (inactive) | GI50 (ACHN): > 100 µM (inactive)

C(=C\c1ccc(-c2cn3cc(/C=C/C=N/NC4=NCCN4)ccc3n2)cc1)/C=N/NC1=NCCN1
GI50 (NCI-H226): 1.5 µM (inactive) | GI50 (SK-MEL-28): 1.84 µM (inactive) | GI50 (KM12): 2 µM (inactive) | GI50 (SW-620): 0.083 µM (active) | GI50 (NCI/ADR-RES): > 25.8 µM (inactive) | GI50 (SNB-75): 1.31 µM (inactive) | GI50 (MDA-MB-435): 1.29 µM (inactive) | GI50 (RPMI-8226): 0.0427 µM (active) | GI50 (RXF 393): 1.51 µM (inactive) | GI50 (SNB-19): 1.27 µM (inactive) | GI50 (786-0): 1.32 µM (inactive) | GI50 (MOLT-4): 2.07 µM (inactive) | GI50 (HCT-116): 0.589 µM (active) | GI50 (CAKI-1): 1.3 µM (inactive) | GI50 (SF-539): 1.57 µM (inactive) | GI50 (OVCAR-8): 1.27 µM (inactive) | GI50 (HOP-92): 1.14 µM (inactive) | GI50 (NCI-H23): 1.72 µM (inactive) | GI50 (K562): 0.461 µM (active) | GI50 (A549): 0.294 µM (active) | GI50 (UO-31): 3.09 µM (inactive) | GI50 (HCT-15): 3.72 µM | GI50 (UACC-257): 0.887 µM (active) | GI50 (HL-60): 0.368 µM (active) | GI50 (U-251): 0.399 µM (active) | GI50 (DU-145): 2 µM (inactive) | GI50 (PC-3): 1.47 µM (inactive) | GI50 (CCRF-CEM): 1.66 µM (inactive) | GI50 (HCC 2998): 1.19 µM (inactive) | GI50 (EKVX): 1.6 µM (inactive) | GI50 (SK-MEL-2): 1.35 µM (inactive) | GI50 (IGROV-1): 2.05 µM (inactive) | GI50 (NCI-H460): 0.514 µM (active) | GI50 (SR): 1.04 µM (active) | GI50 (TK-10): 5.08 µM (inactive) | GI50 (ACHN): 1.36 µM (inactive)

CCCCS/C(=C(/C#N)C(N)=O)c1cc2c([nH]1)CCCC2
GI50 (NCI-H226): 15.1 µM (inactive) | GI50 (Malme-3M): 11.4 µM (inactive) | GI50 (SK-MEL-28): 14 µM (inactive) | GI50 (HT-29): 4.69 µM (inactive) | GI50 (SF-268): 13.8 µM (inactive) | GI50 (MDA-MB-231): 13.1 µM (inactive) | GI50 (KM12): 5.78 µM (inactive) | GI50 (SW-620): 6.12 µM (inactive) | GI50 (OVCAR-4): 16.1 µM (inactive) | GI50 (NCI/ADR-RES): 8 µM (inactive) | GI50 (SNB-75): 15.3 µM (inactive) | GI50 (SF-295): 12.4 µM (inactive) | GI50 (MDA-MB-435): 3.36 µM (inactive) | GI50 (RPMI-8226): 6.71 µM (inactive) | GI50 (RXF 393): 14.9 µM (inactive) | GI50 (SK-OV-3): 22.9 µM (inactive) | GI50 (SNB-19): 19.1 µM (inactive) | GI50 (786-0): 11.5 µM (inactive) | GI50 (SN12C): 23.9 µM (inactive) | GI50 (MOLT-4): 10 µM (inactive) | GI50 (HCT-116): 11 µM (inactive) | GI50 (CAKI-1): 14 µM (inactive) | GI50 (SF-539): 14.7 µM (inactive) | GI50 (OVCAR-8): 15.6 µM (inactive) | GI50 (SK-MEL-5): 13.8 µM (inactive) | GI50 (HOP-62): 21.9 µM (inactive) | GI50 (COLO 205): 14 µM (inactive) | GI50 (HOP-92): 17.1 µM (inactive) | GI50 (OVCAR-3): 15.7 µM (inactive) | GI50 (NCI-H23): 16.7 µM (inactive) | GI50 (K562): 3.68 µM (inactive) | GI50 (A549): 21.9 µM (inactive) | GI50 (UO-31): 13.1 µM (inactive) | GI50 (OVCAR-5): 29 µM (inactive) | GI50 (MDA-N): 4.19 µM (inactive) | GI50 (HCT-15): 9.71 µM | GI50 (UACC-257): 14.3 µM (inactive) | GI50 (HL-60): 3.67 µM (inactive) | GI50 (U-251): 15.7 µM (inactive) | GI50 (DU-145): 12.1 µM (inactive) | GI50 (PC-3): 11.4 µM (inactive) | GI50 (UACC-62): 6.52 µM (inactive) | GI50 (CCRF-CEM): 6.7 µM (inactive) | GI50 (HCC 2998): 11.4 µM (inactive) | GI50 (A498): 17.6 µM (inactive) | GI50 (BT-549): 11.1 µM (inactive) | GI50 (EKVX): 11.2 µM (inactive) | GI50 (MCF7): 10.3 µM (inactive) | GI50 (LOX IMVI): 8.93 µM (inactive) | GI50 (SK-MEL-2): 12.1 µM (inactive) | GI50 (NCI-H460): 18.7 µM (inactive) | GI50 (TK-10): 15.3 µM (inactive) | GI50 (ACHN): 16.3 µM (inactive)

COc1cc(Nc2nc3cc(N)cc(N)c3nc2-c2ccccc2)cc(OC)c1OC
GI50 (HT-29): 16.6 µM (inactive)
